Values quoted from earlier work in US7704745B2 (priority 2001, dated 2010).

Test system: human hepatocyte and neuroblastoma cells
Conditions: cited from earlier work

| Compound | effect on hepatocyte and neuroblastoma cell metabolism |
| --- | --- |
| CCOP(=O)(OCC)Oc1ccc([N+](=O)[O-])cc1 [paraoxon] | opposite effects |
| CCOP(=S)(OCC)Oc1ccc([N+](=O)[O-])cc1 [parathion] | opposite effects |
